Where two headings read alike, the source gives them in different places.
Columns and labels:
[1] = test system: methamphetamine-induced hyperactivity; test: Rat methamphetamine antagonism test; format: in vivo, Male, Long-Evans, black hooded rats; conditions: for ED50: Rattus norvegicus; for % Change From Placebo Control: methamphetamine 1 mg/kg i.p. one hour later
Method: The second test for identifying potential antipsychotic properties was the rat methamphetamine antagonism test.
[…] Three rats were tested at each dose level. Placebo controls received a volume dose of the 0.5% carboxymethylcellulose vehicle. One hour after drug administration, the animals received methamphetamine at an intraperitoneal dose of 1 mg/kg and were placed in individual test chambers equipped with photocells (Lehigh Valley, Model 1497). Antagonism of methamphetamine-induced hyperactivity was recorded as digital counts received from the photocells at one and two hour intervals.
The drug data were compared to placebo control values to identify statistically significant differences using a one-way analysis of variance computer program. ED50's were calculated by the method of Litchfield and Wilcoxin (J. Pharmacol. Exper. Therap.: 96:99, 1949).

[2] = test system: brain level of homovanillic acid (HVA); test: Effect of drug compounds on brain level of homovanillic acid (HVA) in rats; format: in vivo, male Long Evans rats; conditions: brains (minus cerebella) removed two or three hours later, control = 1
Method: In testing for the effectiveness of the present drug compounds on the brain level of homovanillic acid (HVA), the drugs were administered intraperitoneally to male Long Evans rats (Simonsen) usually as aqueous solutions but in certain cases as suspensions in 0.5% methocel in 0.9% saline. The standard testing dose was […] body weight. The test and control groups consisted of 3-5 and 5 animals, respectively. The analyses were performed on brains (minus cerebella) removed two or three hours later. In the analyses, standard extraction and fluorimetric methods were used.
Antipsychotic agents increase the synthesis and release of dopamine which is converted to HVA. The HVA level is therefore a measure of dopamine release.

[3] = oral, calculated by the method of Litchfield and Wilcoxin, read-out: ED50
[4] = Dose 0.15 (moles/kg body weight), intraperitoneal

| Structure (SMILES) | ED50 [1, 3] | % Change From Placebo Control ([1]; oral dose 5 mg/kg) | % Change From Placebo Control ([1]; oral dose 20 mg/kg) | % Change From Placebo Control ([1]; oral dose 80 mg/kg) | HVA Level; Compound : Control Ratio [2, 4] | ED50 ([1]; po) | % Change From Placebo Control ([1]; oral dose 10 mg/kg) | HVA Level; Compound : Control Ratio ([2]; Dose 0.03, intraperitoneal) |
| --- | --- | --- | --- | --- | --- | --- | --- | --- |
| CCN1CCCC1CNC(=O)c1cc(S(N)(=O)=O)ccc1OC (centres unmarked) [Sulpiride, reference compound] | > 80 mg/kg | +27% | +21% | 0% | 3.0 |  |  |  |
| CCN1CCCC1CNC(=O)c1c(C(C)C)nn(C)c1OC (centres unmarked) [III, N[(1-Ethyl-2-pyrrolidinyl)methyl]-3-isopropyl-5-methoxy-1-methylpyrazole 4-carboxamide] | > 80 mg/kg | -31% | -33% | -12% | 1.0 |  |  |  |
| CCN1CCCC1CNC(=O)c1c(C)nn(-c2ccccc2)c1OC (centres unmarked) [V, N-[(1-Ethyl-2-pyrrolidinyl)methyl]-5-methoxy-3-methyl-1-phenyl pyrazole-4-carboxamide] | 23.5 mg/kg | -23% | -32% | -81% | 3.3 |  |  |  |
| CCN1CCCC1CNC(=O)c1c(C)nn(C(C)C)c1O (centres unmarked) [IV] | > 80 mg/kg | +35% | +28% | -18% | 2.2 |  |  |  |
| CCN1CCCC1CNC(=O)c1c(C)nn(C)c1OC (centres unmarked) [I, N-[(1-ethyl-2-pyrrolidinyl)methyl]-5-methoxy-1,3-dimethylpyrazole-4-carboxamide] | 44 mg/kg | -9% | -35% | -60% | 4.0 |  |  |  |
| CCN1CCCC1CNC(=O)c1c(C)nn(C(C)C)c1OC (centres unmarked) [II, N-[(1-Ethyl-2-pyrrolidinyl)methyl]-1-isopropyl-5-methoxy-3-methylpyrazole-4-carboxamide] | > 80 mg/kg | -16% | -13% | -16% | 1.8 |  |  |  |
| CN(C)CCCN1c2ccccc2Sc2ccc(Cl)cc21 [Chlorpromazine, reference compound] |  | +10% | -74% |  |  | 15 mg/kg | -40% | 3.9 |

Source: patent US4226877A, “Pyrazoles active in the central nervous system” (Abbott Laboratories, priority 1979, dated 1980)
